pIC50: −log10 of the molar value.

The target in this assay is Cyclin-dependent kinase 2 (Homo sapiens, UniProt P24941). The experiment in a line: Inhibition of CDK2/Cyclin A. The settings on record: for pIC50: read-out: IC50; for IC50: read-out: pIC50 (converted).

By pIC50 is commonly meant −log10 of the IC50, conventionally taken in molar units. Turning to `O=C(Nc1cc(-c2ccccc2)[nH]n1)c1ccc(Br)cc1`, the pIC50 is under 5.00.

Take `CCCC(=O)Nc1cc(C)[nH]n1`: the pIC50 is under 5.00. For `O=C(Nc1cc(C2CC2)[nH]n1)c1ccccc1Cl`, the pIC50 was 5.00. The same measure, in the same setting: in the case of `COc1ccccc1C(=O)Nc1cc(C2CC2)[nH]n1` it was under 5.00; in that of `CC(C)(C)c1cc(NC(=O)c2ccc(Br)cc2)n[nH]1`, under 5.00. `O=C(Nc1cc(C2CC2)[nH]n1)c1c(Cl)cccc1Cl`: the pIC50 is under 5.00.

Turning to `O=C(Nc1cc(C2CCCCC2)[nH]n1)c1ccc(Br)cc1`, the pIC50 was 5.00. Same read-out and setting: in the case of `CO[C@@H](C(=O)Nc1cc(C2CC2)n[nH]1)c1ccccc1` it was under 5.00; in that of `O=C(Nc1cc(Cc2ccccc2)[nH]n1)c1ccc(Br)cc1`, under 5.00. As to `O=C(Cc1ccc(-c2ccccc2)c(F)c1)Nc1cc(C2CC2)n[nH]1`, the pIC50 was 8.40 and the IC50 was 4 nM. For the molecule `Cc1cc(CC(=O)Nc2cc(C3CC3)[nH]n2)ccc1-c1ccccc1`, the pIC50 was 8.05 and the IC50 is 8.99 nM. The corresponding values for `O=C(Cc1ccc(Cc2cccs2)cc1)Nc1cc(C2CC2)n[nH]1` are 8.52 and 3 nM.

(Values after ChEMBL document CHEMBL1140962, “An efficient tool for identifying inhibitors based on 3D-QSAR and docking using feature-shape pharmacophore of biologically active conformation--a case study with CDK2/cyclinA” (Eur J Med Chem, 2008).)
